Reference: US9212170B2, “4-alkanoylamino-3-pyrazolone derivative” (Daiichi Sankyo Company, Limited, priority 2012, dated 2015)
Counter-ions that a name gives are not always drawn.

Test system: human liver cancer-derived cell line Hep3B
Test: In vitro erythropoietin (EPO) induction activity in Hep3B cells (human EPO ELISA of culture supernatant)
Assay type: cell-based
Settings: test compound 12.5 μM in 0.5% DMSO, 32 hours at 37° C., EPO in culture supernatant expressed as a multiple of the control (0.5% DMSO = 1), read-out: EPO concentration (multiple)
Experimental: In vitro erythropoietin (EPO) induction activity of test compounds was evaluated using human liver cancer-derived cell line Hep3B (ATCC, Manassas, Va.). Hep3B cells were cultured overnight at 37° C. in Dulbecco's modified Eagle's medium (DMEM) in the presence of 10% fetal bovine serum (FBS) (24-well plate, 1.0×10^5 cells/well). After replacing with fresh DMEM (+10% FBS) containing a test compound dissolved in 0.5% dimethyl sulfoxide (DMSO) (prepared to a concentration of 12.5 μM) or a solvent control (0.5% DMSO), the cells were cultured for 32 hours at 37° C. After recovering the culture supernatant, EPO concentration in the culture supernatant was quantified using human EPO ELISA kits (StemCell Technologies). The EPO concentration obtained using each test compound was expressed as a multiple of the EPO concentration obtained using the control.

SMILES | fold induction at 12.5 µM
CC(=O)Nc1c(C)[nH]n(-c2ccc(C(=O)Nc3ccc(Br)cc3)cn2)c1=O [Example 18, 6-(4-Acetamido-3-methyl-5-oxo-2,5-dihydro-1H-pyrazol-1-yl)-N-(4-bromophenyl)nicotinamide] | 3.3
CC(=O)Nc1c(C)[nH]n(-c2ccc(CCc3ccc(C(F)(F)F)cc3)cn2)c1=O [Example 26, N-[5-Methyl-3-oxo-2-(5-{2-[4-(trifluoromethyl)phenyl]ethyl}pyridin-2-yl)-2,3-dihydro-1H-pyrazol-4-yl]acetamide] | 22
CC(=O)Nc1c[nH]n(-c2ccc(C(=O)Nc3ccc(C4CCCCC4)cc3)cn2)c1=O [Example 1, 6-(4-Acetamido-5-oxo-2,5-dihydro-1H-pyrazol-1-yl)-N-(4-cyclohexylphenyl)nicotinamide] | 37
Cc1[nH]n(-c2ccc(C(=O)Nc3ccc(-c4ccccc4)nc3)cn2)c(=O)c1NC(=O)CCC(=O)OC(C)(C)C [Example 22, Tert-butyl 4-[(5-methyl-3-oxo-2-{5-[(6-phenylpyridyl-3-yl)carbamoyl]pyridin-2-yl}-2,3-dihydro-1H-pyrazol-4-yl)amino]-4-oxobutanoate] | 1.9
CC(=O)Nc1c[nH]n(-c2ccc(C(=O)NCc3ccc(-c4ccccc4C#N)cc3)cn2)c1=O [Example 12, 6-(4-Acetamido-5-oxo-2,5-dihydro-1H-pyrazol-1-yl)-N-[(2′-cyanobiphenyl-4-ylmethyl)]nicotinamide] | 2.8
CC(=O)Nc1c[nH]n(-c2cc(COCc3ccccc3)ccn2)c1=O [Example 10, N-(2-{4-[(Benzyloxy)methyl]pyridin-2-yl}-3-oxo-2,3-dihydro-1H-pyrazol-4-yl)acetamide] | 23
CC(=O)Nc1c(C)[nH]n(-c2ccc(COCc3ccc(-c4ccccc4C#N)cc3)cn2)c1=O [Example 21, N-[2-(5-{[(2′-Cyanobiphenyl-4-yl)methoxy]methyl}pyridin-2-yl)-5-methyl-3-oxo-2,3-dihydro-1H-pyrazol-4-yl]acetamide] | 20
CC(=O)Nc1c[nH]n(-c2ccc(COCc3ccc(-c4ccccc4)cc3)cn2)c1=O [Example 14, N-(2-{5-[(Biphenyl-4-ylmethoxy)methyl]pyridin-2-yl}-3-oxo-2,3-dihydro-1H-pyrazol-4-yl)acetamide] | 22
CC(=O)Nc1c(C)[nH]n(-c2ccc(/C=C/c3ccc(C(F)(F)F)cc3)cn2)c1=O [Example 27, N-[5-Methyl-3-oxo-2-(5-{(E)-2-[4-(trifluoromethyl)phenyl]ethenyl}pyridin-2-yl)-2,3-dihydro-1H-pyrazol-4-yl]acetamide] | 2.7
CC(=O)Nc1c[nH]n(-c2cc(N3CCCCC3)ncn2)c1=O [Example 7, N-[3-Oxo-2-(6-piperidin-1-ylpyrimidin-4-yl)-2,3-dihydro-1H-pyrazol-4-yl]acetamide formate] | 29
CC(=O)Nc1c[nH]n(-c2ccc(C(=O)Nc3ccc(C(F)(F)F)cc3)cn2)c1=O [Example 4, 6-(4-Acetamido-5-oxo-2,5-dihydro-1H-pyrazol-1-yl)-N-[4-(trifluoromethyl)phenyl]nicotinamide] | 17
CC(=O)Nc1c(C)[nH]n(-c2ccc(Cc3ccc(C(F)(F)F)cc3)cn2)c1=O [Example 25, N-(5-Methyl-3-oxo-2-{5-[4-(trifluoromethyl)benzyl]pyridin-2-yl}-2,3-dihydro-1H-pyrazol-4-yl)acetamide] | 16
Cc1[nH]n(-c2ccc(C(=O)Nc3ccc(-c4ccccc4)nc3)cn2)c(=O)c1NC(=O)CCC(=O)O [Example 23, 4-[(5-Methyl-3-oxo-2-{5-[(6-phenylpyridyl-3-yl)carbamoyl]pyridin-2-yl}-2,3-dihydro-1H-pyrazol-4-yl)amino]-4-oxobutanoic acid] | 2.7
CC(=O)Nc1c[nH]n(-c2ccc(COCc3ccc(-c4ccccc4C#N)cc3)cn2)c1=O [Example 13, N-[2-(5-{[(2′-Cyanobiphenyl-4-yl)methoxy]methyl}pyridin-2-yl)-3-oxo-2,3-dihydro-1H-pyrazol-4-yl]acetamide] | 29
CC(=O)Nc1c[nH]n(-c2cc(NCCc3ccccc3)ncn2)c1=O [Example 9, N-(3-Oxo-2-{6-[(2-phenylethyl)amino]pyrimidin-4-yl}-2,3-dihydro-1H-pyrazol-4-yl)acetamide] | 6.1
CC(=O)Nc1c[nH]n(-c2cc(N3CCOCC3)ncn2)c1=O [Example 6, N-[2-(6-Morpholin-4-ylpyrimidin-4-yl)-3-oxo-2,3-dihydro-1H-pyrazol-4-yl]acetamide formate] | 13
CC(=O)Nc1c[nH]n(-c2ccc(C(=O)Nc3ccc(C(C)(C)C)cc3)cn2)c1=O [Example 2, 6-(4-Acetamido-5-oxo-2,5-dihydro-1H-pyrazol-1-yl)-N-(4-tert-butylphenyl)nicotinamide] | 36
CC(=O)Nc1c(C)[nH]n(-c2ccc(C(=O)Nc3ccc(C(C)(C)C)cc3)cn2)c1=O [Example 19, 6-(4-Acetamido-3-methyl-5-oxo-2,5-dihydro-1H-pyrazol-1-yl)-N-(4-tert-butylphenyl)nicotinamide] | 13
CC(=O)Nc1c(C)[nH]n(-c2ccc(COCc3ccc(C(F)(F)F)cc3)cn2)c1=O [Example 24, N-{5-Methyl-3-oxo-2-[5-({[4-(trifluoromethyl)benzyl]oxy}methyl)pyridin-2-yl]-2,3-dihydro-1H-pyrazol-4-yl}acetamide] | 22
CC(=O)Nc1c[nH]n(-c2ccc(C(=O)Nc3cccc(C(C)(C)C)c3)cn2)c1=O [Example 3, 6-(4-Acetamido-5-oxo-2,5-dihydro-1H-pyrazol-1-yl)-N-(3-tert-butylphenyl)nicotinamide] | 17
CC(=O)Nc1c[nH]n(-c2ccc(C(=O)Nc3ccc(Cl)cc3)cn2)c1=O [Example 5, 6-(4-Acetamido-5-oxo-2,5-dihydro-1H-pyrazol-1-yl)-N-(4-chlorophenyl)nicotinamide] | 12
CC(=O)Nc1c(C)[nH]n(-c2ccc(C(=O)Nc3ccc(C(F)(F)F)cc3)cn2)c1=O [Example 16, 6-(4-Acetamido-3-methyl-5-oxo-2,5-dihydro-1H-pyrazol-1-yl)-N-[4-(trifluoromethyl)phenyl]nicotinamide] | 3.4
CC(=O)Nc1c(C)[nH]n(-c2ccc(C(=O)Nc3ccc(Cl)cc3)cn2)c1=O [Example 17, 6-(4-Acetamido-3-methyl-5-oxo-2,5-dihydro-1H-pyrazol-1-yl)-N-(4-chlorophenyl)nicotinamide] | 4.3
CC(=O)Nc1c(C)[nH]n(-c2ccc(C(=O)Nc3ccc(-c4ccccc4)nc3)cn2)c1=O [Example 20, 6-(4-Acetamido-3-methyl-5-oxo-2,5-dihydro-1H-pyrazol-1-yl)-N-(6-phenylpyridin-3-yl)nicotinamide] | 3.7
CC(=O)Nc1c[nH]n(-c2ccc(COCc3cccc(-c4ccccc4)c3)cn2)c1=O [Example 15, N-(2-{5-[(Biphenyl-3-ylmethoxy)methyl]pyridin-2-yl}-3-oxo-2,3-dihydro-1H-pyrazol-4-yl)acetamide] | 24
CC(=O)Nc1c[nH]n(-c2ccc(COCc3ccccc3)cn2)c1=O [Example 8, N-(2-{5-[(Benzyloxy)methyl]pyridin-2-yl}-3-oxo-2,3-dihydro-1H-pyrazol-4-yl)acetamide] | 26
CC(=O)Nc1c[nH]n(-c2ccc(C(=O)NCc3cccc(-c4ccccc4)c3)cn2)c1=O [Example 11, 6-(4-Acetamido-5-oxo-2,5-dihydro-1H-pyrazol-1-yl)-N-(biphenyl-3-ylmethyl)nicotinamide] | 41
